Marks after values point to notes of the source that are not given here.
What was measured:
[1] = system: Meloidogyne incognita (RKN); assay: Seed treatment test of root knot nematode on cucumber plants; type: in vivo
Protocol: (§1) For a given concentration the chemical is dissolved in 500 ul of acetone and one gram of cucumber seed (RKN test) or soybean seed (SCN test) is added (e.g., 20 mg active ingredient in 500 ul acetone plus 1 gram of seed). The seed solutions are agitated until all seeds were thoroughly covered with the chemical solution. The acetone is then allowed to evaporate by air drying the seeds. The seeds are planted in 2-inch pots containing sandy soil and then the pots are inoculated with 1000 Meloidogyne incognita (RKN) or 1000 Heterodera glycines (SCN) eggs per pot three days after planting. Plants are rated for galling 14 days after egg inoculation for RKN or 28 days after egg inoculation for SCN.

[2] = system: Heterodera glycines (SCN); assay: Seed treatment test of soybean cyst nematode on soybean plants; type: in vivo; conditions: test a
Protocol: as §1

mice = conditions: cited from earlier work
Meloidogyne incognita = assay: M. incognita miniaturized greenhouse assay on cucumber seedlings (root galling); type: in vivo; conditions: 8 ppm; average of triplicate gall rating, scale 0-3 (% root mass galled)
Procedure, shortened: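 Compound in acetone/Triton X100 stock (5 mg/mL) diluted into water with 0.015% Triton X100 and applied to sand-planted sprouted cucumber seedlings; inoculated with 500 M. incognita eggs two days after planting. Roots harvested 10–12 days later; galling scored 0–3 by % root mass galled, averaged over triplicates, plus visual root phytotoxicity rating.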

[3] = system: sting (Belonolaimus longicaudatus) nematodes; assay: Sting nematode bench top soil assay; type: in vivo
Protocol: Populations of sting (Belonolaimus longicaudatus) nematodes are maintained on St. Augustine turf grass on soil in 15-cm pots. At test initiation the turf is removed from the pots and the soil containing nematode eggs, juveniles, and adults is subdivided into pots each containing a volume of 125 cm^3′ The compounds to be tested are dissolved in 3 ml of acetone using 3, 6, or 15 mg to achieve equivalent surface area application rates of 2, 4, or 10 kg/ha, respectively. The 3 ml acetone stock solution is added to 30 ml of water, and 5 ml of that solution is used to drench each of 6 replicate test pots prepared as described above. The treated pots containing nematodes are incubated in the laboratory at ambient temperature of approximately 25° C. After 3 days the soil from each pot is washed onto a modified Baermann apparatus comprised of a screen supporting a layer of filter paper on which the soil sample is placed and set in a dish of water. The samples are then incubated at 25° C. for 24 hours to allow the live nematodes to migrate through the paper and screen and into a water reservoir to be collected for counting with a light microscope. Nematodes that have been killed or immobilized by the test compounds are not able to migrate into the reservoir.

[4] = system: CD-1/Swiss derived albino mice; type: in vivo; conditions: 500 mg/kg oral, three female mice, observed up to 14 days
Protocol: Acute oral toxicity testing was performed in mice in accordance with test method P203.UDP, as administered by Eurofins/Product Safety Laboratories (Dayton, N.J.). CD-1/Swiss derived albino mice were obtained and group housed in suspended solid bottom caging. The mice were fed rodent chow and filtered tap water was supplied ad libitum. Following acclimation to the laboratory setting, a group of animals was fasted overnight by removing food from the cages. After the fasting period, three female mice were selected based on vitality and initial body weights. The individual compound doses were calculated from these body weights.
The test substance was prepared as a 1% (50 mg/kg) or 5% (500 mg/kg) weight to weight (w/w) mixture in a 0.5% w/w solution of carboxymethylcellulose (CMC) in distilled water. A tissue homogenizer was used to create a homogeneous mixture. A dose of 50 or 500 mg/kg was administered to three healthy mice per dose level by oral intubation using a ball-tipped gavage needle attached to a syringe. After administration, the animals were returned to their cages, and feed was replaced immediately after dosing.
Body weights were recorded prior to initiation and on Days 7 and 14 or a soon as possible after death.

abamectin
percent control (galling reduction) relative to the control blank treatment ([1]; 10 mg ai/gram seed, cucumber seeds (positive control)): 84%
percent cyst reduction relative to control blank treatment ([2]; 0.375 mg al/gram seed): −14^a percent
percent cyst reduction relative to control blank treatment ([2]; 1.5 mg al/gram seed): −24^a percent
oral LD50 in mice (mice): 13.6 mg/kg

Fc1ccc(-c2cnc(-c3cccs3)o2)cc1 [compound 4775]
8 ppm gall ratings (Meloidogyne incognita): 0 (0=0-5%)
Number of nematodes recovered from treated soil after 3 days incubation with the compound ([3]; 2 kg/ha): 15
Number of nematodes recovered from treated soil after 3 days incubation with the compound ([3]; 4 kg/ha): 7
Number of nematodes recovered from treated soil after 3 days incubation with the compound ([3]; 10 kg/ha): 4
mortality, signs of gross toxicity and behavioral changes [4]: all animals survived, gained body weight, and appeared active and healthy
percent control (galling reduction) relative to the control blank treatment ([1]; 20 mg ai/gram seed, cucumber seeds): 77%
